Experimental data published in ChEMBL document CHEMBL5532652, “Design and synthesis of pterostilbene derivatives bearing triazole moiety that might treat DSS-induced colitis in mice through modulation of NF-κB/MAPK signaling pathways” (Eur J Med Chem, 2024).
pIC50: −log10 of the molar value. Active and inactive are the calls of the source. The rule behind the calls is not given here.

How the values were obtained:
[1] = Acute toxicity in male C57BL/6 mouse assessed as hyperactivity at 1000 to 2000 mg/kg, po measured for 14 days; assay type: organism-based; details: in vivo, 336 h, dose 1000-2000 mg/kg, time 14 day
[2] = Acute toxicity in male C57BL/6 mouse assessed as lethargy at 1000 to 2000 mg/kg, po measured for 14 days; assay type: organism-based; details: in vivo, 336 h, dose 1000-2000 mg/kg, time 14 day
[3] = Acute toxicity in C57BL/6 mouse assessed as heart damage at 1000 mg/kg, po measured for 14 days; assay type: organism-based; details: in vivo, 336 h, time 14 day
RAW264.7 [4] = test: Anti-inflammatory activity against LPS-stimulated mouse RAW264.7 cells assessed as reduction in LPS-induced COX-2 level preincubated with compound for 1 hr followed by LPS stimulation and measured after 24 hrs by Western blot analysis; assay type: functional, cell-based; details: dose 0.5-2 µM, time 25.0 hrs
[5] = Acute toxicity in male C57BL/6 mouse assessed as effect on fur laxity at 1000 to 2000 mg/kg, po measured for 14 days; assay type: organism-based; details: in vivo, 336 h, dose 1000-2000 mg/kg, time 14 day
RAW264.7 [6] = test: Anti-inflammatory activity in mouse RAW264.7 cells assessed as inhibition of LPS-induced NO production incubated pretreated with compound for 1 hr followed by LPS-induction and measured after 24 hrs by Griess reagent based assay; assay type: functional, cell-based
Mus musculus [7] = test: Anti-inflammatory activity against DSS-induced acute colitis C57BL/6J mouse model assessed as decrease in colon length at 10 to 20 mg/kg, po measured for 7 days; assay type: functional, organism-based; details: dose 10-20 mg/kg, time 7.0 day
[8] = Acute toxicity in C57BL/6 mouse assessed as kidney damage at 1000 mg/kg, po measured for 14 days; assay type: organism-based; details: in vivo, 336 h, time 14 day
[9] = Toxicity in C57BL/6 mouse assessed as body weight loss at 20 mg/kg, po measured for 7 days; assay type: organism-based; details: in vivo, 168 h, time 7 day
Mus musculus [10] = test: Anti-inflammatory activity against DSS-induced acute colitis C57BL/6J mouse model assessed as reduction in IL-1beta level in colon at 10 to 20 mg/kg, po measured for 7 days by ELISA analysis; assay type: functional, organism-based; details: dose 10-20 mg/kg, time 7.0 day
Mus musculus [11] = test: Anti-inflammatory activity against DSS-induced acute colitis C57BL/6J mouse model assessed as reduction in MPO level in colon at 10 to 20 mg/kg, po measured for 7 days; assay type: functional, organism-based; details: dose 10-20 mg/kg, time 7.0 day
[12] = Toxicity in C57BL/6 mouse assessed as reduction in disease index at 20 mg/kg, po measured for 7 days; assay type: organism-based; details: in vivo, 168 h, time 7 day
Mus musculus [13] = test: Anti-inflammatory activity against DSS-induced acute colitis C57BL/6J mouse model assessed as reduction in TNF-alpha level in colon at 10 to 20 mg/kg, po measured for 7 days by ELISA analysis; assay type: functional, organism-based; details: dose 10-20 mg/kg, time 7.0 day
[14] = Acute toxicity in male C57BL/6 mouse assessed as effect on body weight gain at 1000 to 2000 mg/kg, po measured for 14 days; assay type: organism-based; details: in vivo, 336 h, dose 1000-2000 mg/kg, time 14 day
Mus musculus [15] = test: Anti-inflammatory activity against DSS-induced acute colitis C57BL/6J mouse model assessed as disappearance of crypt foci in colon at 10 to 20 mg/kg, po measured for 7 days; assay type: functional, organism-based; details: dose 10-20 mg/kg, time 7.0 day
[16] = Acute toxicity in female C57BL/6 mouse assessed as lethargy at 1000 to 2000 mg/kg, po measured for 14 days; assay type: organism-based; details: in vivo, 336 h, dose 1000-2000 mg/kg, time 14 day
[17] = Acute toxicity in female C57BL/6 mouse assessed as effect on body weight loss at 1000 to 2000 mg/kg, po measured for 14 days; assay type: organism-based; details: in vivo, 336 h, dose 1000-2000 mg/kg, time 14 day
[18] = Acute toxicity in female C57BL/6 mouse assessed as effect on fur laxity at 1000 to 2000 mg/kg, po measured for 14 days; assay type: organism-based; details: in vivo, 336 h, dose 1000-2000 mg/kg, time 14 day
[19] = Acute toxicity in C57BL/6 mouse assessed as spleen damage at 1000 mg/kg, po measured for 14 days; assay type: organism-based; details: in vivo, 336 h, time 14 day
RAW264.7 [20] = test: Anti-inflammatory activity in mouse RAW264.7 cells assessed as inhibition of LPS-induced NO production at 10 uM incubated pretreated with compound for 1 hr followed by LPS-induction and measured after 24 hrs by Griess reagent based assay relative to control; assay type: functional; details: time 25 hrs
RAW264.7 [21] = test: Anti-inflammatory activity in LPS-stimulated mouse RAW264.7 cells assessed as inhibition of JNK phosphorylation preincubated with compound for 1 hr followed by LPS stimulation and measured after 30 mins by Western blot analysis; assay type: functional, cell-based; details: dose 0.5-2 µM, time 1.5 hrs
[22] = Acute toxicity in C57BL/6 mouse assessed as liver damage at 1000 mg/kg, po measured for 14 days; assay type: organism-based; details: in vivo, 336 h, time 14 day
RAW264.7 [23] = test: Anti-inflammatory activity in LPS-stimulated mouse RAW264.7 cells assessed as inhibition of p65 phosphorylation at 0.5 to 2 uM preincubated with compound for 1 hr followed by LPS stimulation and measured after 30 mins by Western blot analysis; assay type: functional, cell-based; details: dose 0.5-2 µM, time 1.5 hrs
[24] = Acute toxicity in female C57BL/6 mouse assessed as anorexia at 1000 to 2000 mg/kg, po measured for 14 days; assay type: organism-based; details: in vivo, 336 h, dose 1000-2000 mg/kg, time 14 day
RAW264.7 [25] = test: Anti-inflammatory activity in LPS-stimulated mouse RAW264.7 cells assessed as reduction in JNK level at 0.5 to 2 uM preincubated with compound for 1 hr followed by LPS stimulation and measured after 30 mins by Western blot analysis; assay type: functional, cell-based; details: dose 0.5-2 µM, time 1.5 hrs
RAW264.7 [26] = test: Anti-inflammatory activity against LPS-stimulated mouse RAW264.7 cells assessed as downregulation of LPS-induced COX-2 expression at 0.5 to 2 uM preincubated with compound for 1 hr followed by LPS stimulation and measured after 24 hrs by Western blot analysis; assay type: functional, cell-based; details: dose 0.5-2 µM, time 25.0 hrs
RAW264.7 [27] = test: Anti-inflammatory activity in LPS-stimulated mouse RAW264.7 cells assessed as reduction in p38 level at 0.5 to 2 uM preincubated with compound for 1 hr followed by LPS stimulation and measured after 30 mins by Western blot analysis; assay type: functional, cell-based; details: dose 0.5-2 µM, time 1.5 hrs
[28] = Acute toxicity in male C57BL/6 mouse assessed as effect on body weight loss at 1000 to 2000 mg/kg, po measured for 14 days; assay type: organism-based; details: in vivo, 336 h, dose 1000-2000 mg/kg, time 14 day
RAW264.7 [29] = test: Anti-inflammatory activity in LPS-stimulated mouse RAW264.7 cells assessed as inhibition of p38 phosphorylation preincubated with compound for 1 hr followed by LPS stimulation and measured after 30 mins by Western blot analysis; assay type: functional, cell-based; details: dose 0.5-2 µM, time 1.5 hrs
RAW264.7 [30] = test: Anti-inflammatory activity in LPS-stimulated mouse RAW264.7 cells assessed as reduction in ERK level at 0.5 to 2 uM preincubated with compound for 1 hr followed by LPS stimulation and measured after 30 mins by Western blot analysis; assay type: functional, cell-based; details: dose 0.5-2 µM, time 1.5 hrs
Mus musculus [31] = test: Anti-inflammatory activity against DSS-induced acute colitis C57BL/6J mouse model assessed as decrease in goblet cells in colon at 10 to 20 mg/kg, po measured for 7 days; assay type: functional, organism-based; details: dose 10-20 mg/kg, time 7.0 day
Mus musculus [32] = test: Anti-inflammatory activity against DSS-induced acute colitis C57BL/6J mouse model assessed as decrease in neutrophil infiltration in colon at 10 to 20 mg/kg, po measured for 7 days; assay type: functional, organism-based; details: dose 10-20 mg/kg, time 7.0 day
[33] = Acute toxicity in female C57BL/6 mouse assessed as hyperactivity at 1000 to 2000 mg/kg, po measured for 14 days; assay type: organism-based; details: in vivo, 336 h, dose 1000-2000 mg/kg, time 14 day
Mus musculus [34] = test: Anti-inflammatory activity against DSS-induced acute colitis C57BL/6J mouse model assessed as reduction in edema at 10 to 20 mg/kg, po measured for 7 days; assay type: functional, organism-based; details: dose 10-20 mg/kg, time 7.0 day
[35] = Acute toxicity in C57BL/6 mouse assessed as lung damage at 1000 mg/kg, po measured for 14 days; assay type: organism-based; details: in vivo, 336 h, time 14 day

C=CCOc1ccc(/C=C/c2cc(OC)cc(OC)c2-c2cnnn2C(=O)NCCCl)cc1
Activity [1]: Non-Toxic
Activity [2]: Non-Toxic
Activity [3]: Non-Toxic
Activity (RAW264.7 [4]): Dose-Dependent Effect
Activity [5]: Non-Toxic
pIC50 (RAW264.7 [6]): 6.22
Activity (Mus musculus [7]): Active
Activity [8]: Non-Toxic
Activity [9]: Toxic
Activity (Mus musculus [10]): Active
Activity (Mus musculus [11]): Active
Activity [12]: Non-Toxic
Activity (Mus musculus [13]): Active
Activity [14]: Non-Toxic
Activity (Mus musculus [15]): Active
Activity [16]: Non-Toxic
Activity [17]: Non-Toxic
Activity [18]: Non-Toxic
Activity [19]: Non-Toxic
inhibition at 10 µM (RAW264.7 [20]): 98%
Activity (RAW264.7 [21]): Dose-Dependent Effect
Activity [22]: Non-Toxic
Activity (RAW264.7 [23]): Active
Activity [24]: Non-Toxic
Activity (RAW264.7 [25]): Active
Activity (RAW264.7 [26]): Active
Activity (RAW264.7 [27]): Active
Activity [28]: Non-Toxic
Activity (RAW264.7 [29]): Dose-Dependent Effect
Activity (RAW264.7 [30]): Active
Activity (Mus musculus [31]): Active
Activity (Mus musculus [32]): Active
Activity [33]: Non-Toxic
Activity (Mus musculus [34]): Active
Activity [35]: Non-Toxic
